Experimental findings from patent publication US8158360B2, “Effects of inhibitors of FGFR3 on gene transcription” (priority 2005, dated 2012) are described below.

Common to all, as to test: Sensitivity of multiple myeloma cell line to CHIR-258 treatment
Common to all, as to format: cell-based, human

The subject of one assay is KMS11. To be noted: KMS11: Ras WT, FGFR3Y373C mutant.
For another assay, the system named is H929. The note with it: H929: N13 Ras mutant, FGFR3 wild-type (WT).
The subject of the next assay is KMS18. To be noted: KMS18: Ras WT, FGFR3G384D mutant.
A further assay concerns U266. To be noted: U266: Ras WT, FGFR3 negative.
The next assay has as its system UTMC2. To be noted: UTMC2: Ras WT, FGFR3WT.

Each structure is given as a SMILES string.

Turning to `CN1CCN(c2ccc3nc(-c4c(N)c5c(F)cccc5[nH]c4=O)[nH]c3c2)CC1` [CHIR-258, 4-Amino-5-fluoro-3-[6-(4-methylpiperazin-1-yl)-1H-benzimidazol-2-yl]quinolin-2(1H)-one], the “sensitivity of cell line to treatment” value with KMS11 is “sensitive”; with H929, “resistant”; with KMS18 it was “sensitive”; in the assay with U266, “resistant”; with UTMC2, “resistant”.
